Results: patent US20090269770A1, “METHODS FOR EVALUATION PROGNOSIS AND FOLLOW-UP OF DRUG TREATMENT OF PSYCHIATRIC DISEASES OR DISORDERS” (priority 2008, published 2009)
Where “and” joins values, the source holds several entries; their conditions need not be identical. Equal values may be shown once. Entries after “also recorded” stand apart in the source; their conditions may differ.

Key:
Format in all cases: in vivo, human
[1] = system: PMC from schizophrenic patients; experiment: GPCR cDNA array (GEArray Q series) of PMC gene expression, fluvoxamine augmentation; design: key to Gene expression change CCR5 (X91492), divided by week 0 / Gene expression change CCR7 (L31581), divided by week 0 / Gene expression change CCRL1 (AF110640), divided by week 0 / Gene expression change CRL1 (U79527), divided by week 0 / Gene expression change IL8Rα (L19591), divided by week 0 / Gene expression change RGS7 (BC022009), divided by week 0 / Gene expression change 5-HT2A (X57830), divided by week 0 / Gene expression change 5-HT7 (L21195), divided by week 0 / Gene expression change CCR1 (D10925), divided by week 0: D—down regulation (<0.7); U—up regulation (>1.3); nc—No change; nd—Not detected; conditions: for Gene expression change 5-HT2A (X57830), divided by week 0 / Gene expression change 5-HT7 (L21195), divided by week 0 / Gene expression change CCR1 (D10925), divided by week 0 / Gene expression change CCR5 (X91492), divided by week 0 / Gene expression change CCR7 (L31581), divided by week 0 / Gene expression change CCRL1 (AF110640), divided by week 0 / Gene expression change CRL1 (U79527), divided by week 0 / Gene expression change IL8Rα (L19591), divided by week 0 / Gene expression change RGS7 (BC022009), divided by week 0: PMC, one cell per patient I-VI
Description: (§1) Patients suffering from chronic schizophrenia (DSM IV criteria) with at least 2 years of illness (range 2-17 years) and persistent negative symptoms were chosen from an Israeli mental health center, as shown in Table 1. To qualify for inclusion in the study, these patients were required to be on constant antipsychotic medication for at least 6 months prior to the study and on an unchanged dose for at least 4 weeks before entry.
(§2) Fluvoxamine (100 mg/day) was added in an open study format to the antipsychotic treatment, which remained steady. Clinical state was assessed by psychiatrists using validated rating scales for negative (SANS) and positive (SAPS) symptoms (Silver et al., 2003) prior to fluvoxamine treatment and then weekly until the end of the trial period. Total SANS scores and summary scores for […] blunting, alogia, anhedonia and […] factors were the outcome measures. Extrapyramidal symptoms were assessed with the Simpson-Angus Scale (SAS) for extrapyramidal side effects (Simpson and Angus, 1970). Blood samples were taken at baseline (day 0), before addition of fluvoxamine, after 3 weeks of combined treatment, a time when the initial clinical effect is expected to be seen (Silver et al., 2003), and after 6 weeks of the combined treatment.
Blood samples (40 ml) from patients were collected in EDTA-coated tubes in order to prevent coagulation, and transported in ice to the laboratory for further processing. Each 15 ml of blood was completed to 40 ml with phosphate buffered saline (PBS) and gently mixed. PMC were isolated according to Ficoll protocol (Sigma, USA). In short, after addition of Ficoll reagent, the tubes were centrifuged (400 g, 30 min), and the interphase was transferred to a new tube, mixed with 100 ml PBS and centrifuged (400 g, 10 min). The supernatant was discarded and the pellet containing the PMC was washed 3 times with PBS (400 g, 10 min). TriReagent (Sigma, USA) was added to the pellet and left on ice for 15 min.
[…] chloroform was added to 1 ml of sample in TriReagent and the suspension was centrifuged (12,000 g, 20 min, 4° C.). After precipitation with isopropanol, the RNA pellet was washed twice with 70% ethanol (7,500 g, 10 min), followed by one wash with 96% ethanol (12,000 g, 10 min) and resuspended in diethylpyrocarbonate (DEPC)-treated water. RNA sample concentrations were determined by UV spectrophotometry at 260 nm (average OD260/2801.9-2). RNA purity was determined by the 260/230 and 260/280 ratios. RNA integrity was confirmed using gel (1.2% agarose) electrophoresis by direct visualization of 18S and 28S rRNA bands and densitometric analysis.
In the next step, gene expression profiles were examined with GEArray™ cDNA membranes, consisting of genes related to G protein-coupled receptor (GPCR) pathways (Q series human G protein-coupled receptor gene array II, SuperArray, Bethesda, Md., USA). Each membrane consists of 100 human cDNAs fragments associated with GPCR family, including receptors for dopamine (DA), serotonin (5-HT), acetylcholine and epinephrine; receptors for chemokines; GPCR kinases; Mitogen activated protein kinases; and regulators of G-protein signaling (RGS). Hybridization array analysis was performed according to the manufacturer's (SuperArray, Bethesda, Md.) protocol. Total RNA from each patient was reverse transcribed with biotinylated dUTP (Roche Diagnostics, Mannheim, Germany) and a gene specific primer mix (SuperArray, Bethesda, Md.). The probes were hybridized to the membrane and the array image was recorded using X-ray film. Quantitation of the results and analysis was accomplished using the manufacturer Software Package (SuperArray, Bethesda, Md.). The row values from 4 spotted replicates of a gene were averaged, normalized to the median of all intensity values on array and compared to control values, thereby assessing the relative expression level of a given mRNA. […]

schizophrenic patients [2] = experiment: Clinical rating scales for negative (SANS) and positive (SAPS) symptoms; conditions: for SANS total / SAPS total / Affective blunting score / Alogia score / Anhedonia score / Avolition score: one line per patient I-VI
Description: as §1, §2
The biochemical data were analyzed by one way analysis of variance (ANOVA) followed by Dunnett's test. For each gene, differences between expression after 3 or 6 weeks of treatment ad baseline, were considered significant if they reached a level of significance of p<0.05. Clinical response was assessed with repeated measure ANOVA.

schizophrenic patients [3] = experiment: Simpson-Angus Scale (SAS) for extrapyramidal side effects; conditions: for Extra-pyramidal side effects score: one line per patient I-VI
Description: as §2

[4] = after 3 weeks or more of the combined treatment
[5] = in at least 4 out of the 6 subjects after 3 weeks or more of the combined treatment

Compound: COCCCC/C(=N\OCCN)c1ccc(C(F)(F)F)cc1 [fluvoxamine]
- expression level of CCR5 [1, 4]: increase
- transcript encoding 5-HR7 [1, 4]: reduced expression level
- transcript encoding 5-HT2A [1, 4]: reduced expression level
- transcript encoding RGS7 [1, 4]: reduced expression level
- expression level of CCR1 [1, 5]: decrease
- expression level of CCRL1 [1, 5]: decrease
- expression level of CMKLR1 [1, 5]: decrease
- expression level of IL8Rα [1, 5]: decrease
- Gene expression change 5-HT2A (X57830), divided by week 0 ([1]; week 3): D (D—down regulation (<0.7)) (4×) and nc
- Gene expression change 5-HT7 (L21195), divided by week 0 ([1]; week 3): D (D—down regulation (<0.7)) (4×) and nc
- Gene expression change CCR1 (D10925), divided by week 0 ([1]; week 3): D (D—down regulation (<0.7)) (3×) and nc
- Gene expression change CCR5 (X91492), divided by week 0 ([1]; week 3): U (U—up regulation (>1.3))
- Gene expression change CCR7 (L31581), divided by week 0 ([1]; week 3): nc (2×) and D (D—down regulation (<0.7)) (3×) and U (U—up regulation (>1.3))
- Gene expression change CCRL1 (AF110640), divided by week 0 ([1]; week 3): nc (3×) and D (D—down regulation (<0.7)) (3×)
- Gene expression change CRL1 (U79527), divided by week 0 ([1]; week 3): D (D—down regulation (<0.7)) (4×) and nc (2×)
- Gene expression change IL8Rα (L19591), divided by week 0 ([1]; week 3): D (D—down regulation (<0.7)) (3×) and nc and U (U—up regulation (>1.3)) (2×)
- Gene expression change RGS7 (BC022009), divided by week 0 ([1]; week 3): D (D—down regulation (<0.7)) (2×) and nc (3×) and U (U—up regulation (>1.3))
- Gene expression change 5-HT2A (X57830), divided by week 0 ([1]; week 6): nc and D (D—down regulation (<0.7)) (4×)
- Gene expression change 5-HT7 (L21195), divided by week 0 ([1]; week 6): D (D—down regulation (<0.7)) (4×) and nc
- Gene expression change CCR1 (D10925), divided by week 0 ([1]; week 6): D (D—down regulation (<0.7)); also recorded: U (U—up regulation (>1.3))
- Gene expression change CCR5 (X91492), divided by week 0 ([1]; week 6): U (U—up regulation (>1.3)) and nc (2×) and D (D—down regulation (<0.7))
- Gene expression change CCR7 (L31581), divided by week 0 ([1]; week 6): U (U—up regulation (>1.3)) (3×) and nc (2×) and D (D—down regulation (<0.7))
- Gene expression change CCRL1 (AF110640), divided by week 0 ([1]; week 6): U (U—up regulation (>1.3)) (2×) and nc (2×) and D (D—down regulation (<0.7)) (2×)
- Gene expression change CRL1 (U79527), divided by week 0 ([1]; week 6): D (D—down regulation (<0.7)) (4×) and nc and U (U—up regulation (>1.3))
- Gene expression change IL8Rα (L19591), divided by week 0 ([1]; week 6): D (D—down regulation (<0.7)) (4×) and U (U—up regulation (>1.3)) and nc
- Gene expression change RGS7 (BC022009), divided by week 0 ([1]; week 6): D (D—down regulation (<0.7)) (4×) and nc (2×)
- expression level of CCR7 ([1]; week 6 compared with week 3): increased
- expression level of CCRL1 ([1]; week 6 compared with week 3): increased
- SANS total (schizophrenic patients [2]; 3 W of augmentation treatment): 71 and 49 and 69 and 104 and 91 and 97
- SAPS total (schizophrenic patients [2]; 3 W of augmentation treatment): 9 and 7 (2×) and 12 (2×) and 11
- Affective blunting score (schizophrenic patients [2]; 3 W): 23 and 26 and 19 and 9 and 18 and 27
- Alogia score (schizophrenic patients [2]; 3 W): 24 and 21 and 13
- Anhedonia score (schizophrenic patients [2]; 3 W): 14 (2×) and 16 and 11 (2×) and 17
- Avolition score (schizophrenic patients [2]; 3 W): 16 and 18 and 11 and 8 (2×) and 19
- SANS total (schizophrenic patients [2]; 6 W of augmentation treatment): 63 and 46 and 60 and 103 and 86 and 98
- SAPS total (schizophrenic patients [2]; 6 W of augmentation treatment): 9 and 7 and 6 and 12 (2×) and 10
- Affective blunting score (schizophrenic patients [2]; 6 W): 30 and 22 and 14
- Alogia score (schizophrenic patients [2]; 6 W): 21 and 26 (2×) and 16 and 9 and 15
- Anhedonia score (schizophrenic patients [2]; 6 W): 14 (2×) and 8 and 9 and 12 and 17
- Avolition score (schizophrenic patients [2]; 6 W): 16 and 18 and 11 and 8 (2×) and 19
- SAPS score change (schizophrenic patients [2]; following augmentation-treatment): no significant change
- mean SANS total score change (schizophrenic patients [2]; following augmentation-treatment, p<0.001): significant changes
- affective blunting change (schizophrenic patients [2]; following augmentation-treatment, p<0.01): significant changes
- anhedonia change (schizophrenic patients [2]; following augmentation-treatment, p=0.30): trend
- avolition change (schizophrenic patients [2]; following augmentation-treatment, p=0.75): trend
- Extra-pyramidal side effects score (schizophrenic patients [3]; 3 W): 0 (5×) and 6
- Extra-pyramidal side effects score (schizophrenic patients [3]; 6 W): 0 (5×) and 4
- Extra pyramidal side effects change (schizophrenic patients [3]; with augmentation treatment, absent in all, except one patient): did not change significantly
